“Also recorded” adds a separate entry of the source.
Legend:
[1] = test system: STAT3; assay: STAT3 phosphorylation (Ser727, Tyr705) immunoblot in CNS stem cells; assay type: cell-based, mouse; details: for effect on STAT3-Ser727 phosphorylation following Notch activation: Notch ligand treated CNS stem cells
From the text: Ligands that activate JAK/STAT signaling promote astrocytic differentiation of CNS stem cells (Johe et al., Genes Dev 10:3129-40, 1996; Raj an et al., J Neurosci 18:3620-9, 1998; Bonni et al., Science 278:477-83, 1997; Song et al., Nat Neurosci 7:229-35, 2004; He et al., Nat Neurosci 8:616-625, 2005). When applying CNTF to CNS stem cells it was noted that low concentrations of CNTF stimulated survival but not expression of astrocyte specific genes. This is consistent with previous observations of Akt phosphorylation downstream of gp130 activation (Taga et al., Annu Rev Immunol 15:797-819, 1997). […] At high concentrations (20 ng/ml) the phosphorylation of Tyr705 can be blocked by an inhibitor of JAK while allowing a CNTF-induced increase in Ser727 phosphorylation (FIG. 2B) (Thompson et al., Bioorg Med Chem Lett 12:1219-23, 2002).
CNTF was used as a positive control; CNTF, induced the phosphorylation on both sites. With both CNTF and Notch activation, phosphorylation peaked at around 30 min. STAT3 phosphorylation on Ser727 following Notch activation was sensitive to the γ-secretase inhibitor DAPT (FIG. 2e). […] In contrast to CNTF, no Tyr705 phosphorylation was detected at any of the doses of Notch receptor ligands.
It was determined that insulin also maintains phosphorylation of serine 727 in STAT3 in foetal neural stem cell cultures.

[2] = test system: Notch1; assay: Notch activation (Notch1IC / Notch ICD) immunocytochemical detection; assay type: cell-based, mouse; details: Notch ligands 1 hour
From the text: Antibodies were used that specifically bind: Notch1IC (Chemicon, 5352), GFP (Molecular Probes, A11122), Oct3/4 (Santa Cruz, sc-5279), SSEA1 and SSEA4 (Developmental Studies HybridomaBank), Tra-1-60 (Chemicon, MAB4360), Tra-1-81 (Chemicon, MAB4381), human nestin (Chemicon, MAB5326), Sox-1 (Gift from Dr. R Lovell-Badge), TH (Pel-Freez, P40101-0), Tuj1 (Covance, MMS-435P), rat nestin (McKay Lab), GFAP (Dako, z0334), CNPase (Chemicon, MAB326), BrdU (Accurate, H5903), DCX (Santa Cruz, sc-8066), Sox2 (R&D, MAB2018), Hu (Molecular Probes, A21271).
To assay for Notch activation, cultures were treated with the Notch ligands for 1 hour and Notch1 activation was detected by immunocytochemical staining of Notch1IC (FIG. 1b).
It was determined that insulin facilitates Notch cleavage using immunocytochemical detection.

[3] = test system: Hes3; assay: Hes3 expression (RT-PCR, immunohistochemistry) in CNS stem cells; assay type: cell-based, mouse; details: for effect on Jagged-induced Hes3 mRNA induction: CNTF at high concentrations (>1 ng/ml)
Procedure: RT-PCR: For reverse-transcriptase PCR analysis, RNA was extracted from cell cultures or brain homogenates with Trizol (Invitrogen, 15596-026), and PCR reactions were performed with the ProSTAR First-Strand RT-PCR Kit (Stratagene, 200420). Primers were used for the following genes: Hes1, Hes2, Hes3, Hes5, Hes6, Hey2; Hes7
Notch signaling regulates transcription of the Hes/Hey gene family, a group of genes implicated in the control of differentiation (Iso et al., J Cell Physiol 194:237-55, 2003). RT-PCR was used to assess mRNA regulation of these genes one hour after Notch activation in CNS stem cells. […] The ability of high concentrations of CNTF to inhibit Hes3 induction following Notch activation was dependent on JAK activity (FIG. 4e). In contrast, in the absence of added Notch ligand, Hes3 mRNA levels were elevated by high CNTF and the JAK inhibitor (FIG. 4e).
Conversely, treatment with ciliary neurotrophic factor (CNTF), a cytokine that opposes the signal transduction pathway downstream of Notch activation opposed the ability of D114 to induce Hes3 transcription. Immunohistochemical experiments were performed that documented D114, CNTF regulate Hes3 expression. Thus, at the protein expression level, D114 maintains and CNTF inhibits Hes3 expression.

[4] = test system: E13.5 cortical embryonic mouse CNS stem cells; assay: CNS stem cell plating efficiency / colony formation / survival; assay type: cell-based; details: 5 days, versus FGF2 control; CNTF low 0.01, 0.1 ng/ml or high 20 ng/ml with JAK inhibitor
Procedure: Cell culture: E13.5 cortical embryonic mouse and adult rat subventricular zone CNS stem cells were grown as previously described (Johe et al., Genes Dev 10:3129-40, 1996; Rajan et al., J Neurosci 18:3620-9, 1998). Cells were expanded in serum-free DMEM/F12 medium with N2 supplement with FGF2 (20 ng/ml) for 5 days and were re-plated at 1000-10,000 cells per cm^2. FGF2 was included throughout our experiments, unless otherwise stated.
To explore these paradoxical observations, CNS stem cell cultures from mid-gestation (embryonic day 13.5) mouse dorsal telencephalon were treated with soluble Notch ligands. […] Following initial passaging, the cells were plated at a density of 1000 cells/cm^2, cultured for 5 days in the presence of FGF2, and colony numbers, sizes, and BrdU incorporation (after a 4 hour BrdU pulse) were enumerated. Notch activation by Jagged-1 or Delta-4 (200 ng/ml) increased the number of colonies generated in vitro by over 3-fold (FIG. 1a). […] The effects of Notch activation were most dramatic when treatments were initiated at the start of the culture.
Insulin in the medium is also thought to promote cell survival. […] Seeding cells in the absence of insulin caused the plating efficiency measured at five days to drop to 29.9%±37.9 (FIG. 1e). Delta-4 was able to compensate for the lack of insulin in the medium, and restored plating efficiency (125%±19.4). Because Notch activation improved survival, activation of Akt, a ser/threonine kinase known to be involved in cell survival, was assayed. Notch activation rapidly (5 minutes) promoted the phosphorylation of Akt on Ser473 and […] in both the presence and absence of insulin (FIG. 1f).

[5] = test system: HSF6 hES cells; assay: hES single cell plating efficiency, HSF-6; assay type: cell-based, human; details: one week treatment
From the text: The human ES cell lines HSF-6 (University of California, San Francisco; NIH # UC06, Passage 38-120) and H1 and H9 (WiCell Research Institute, NIH # WA01 and […]) were maintained on mouse embryonic fibroblasts (MEF) according to the suppliers' protocols. Immunocytochemistry and FACS analysis for the expression of Oct4 and SSEA4 and SKY karyotyping established that the starting cells are undifferentiated and have a normal set of chromosomes. For single cell survival experiments, hES colonies were harvested after treatment with 1.5 mg/ml collagenase type IV (Invitrogen), separated from the MEF feeder cells by repeated washing by gravity, gently triturated to break up colonies into small aggregates, further dissociated into a single cell solution by trypsination (0.05% trypsin/0.04% EDTA) and transferred on MEF feeder cells at a density of 10000 cells/ml. Oct-4 positive colonies were counted six days after plating. […]
The pro-survival effects of activation of Notch and inhibition of JAK was tested on HSF-6 (NIH code UC06, http://escell.ucsf.edu), H1 (NIH code WA01, www.wicell.org) and H9 (NIH code WA09, www.wicell.org) hES cells. Singly dissociated hES cells were plated on mouse embryo fibroblasts (MEFs), treated daily for one week and colony numbers counted. […]

[6] = test system: mES (D3) cells; assay: mES cell plating efficiency, Oct4 and STAT3 phosphorylation in the presence of LIF; assay type: cell-based, mouse
From the text: FIGS. 10a-10c are a set of images showing JAK inhibition reduces the phosphorylation of STAT3 on Ser727 in mES cell cultures. […] Very low levels of phosphorylated p38 were detectable under all conditions. […] Self-renewal of mES cells correlated with Ser727 phosphorylation.
mES (D3) cells were obtained from ATCC and were maintained in feeder-free cultures on gelatin-coated plates supplemented with 1400 units/ml LIF.
There is great interest in conditions that support the growth of mouse and human ES cells. In contrast to CNS SC (FIG. 2, FIG. 3) and hES SC (se below), the growth of undifferentiated mouse ES cells depends on the stimulation of the JAK/STAT pathway and STAT3 phosphorylation on Tyr705 has been specifically shown to be essential for self-renewal of mouse ES cells (Niwa et al., Genes Dev 12:2048-60, 1998; Matsuda et al., Embo J 18:4261-9, 1999). Ligands that stimulate the JAK/STAT pathway cause human ES cells to differentiate (Daheron et al., Stem Cells 22:770-8, 2004; Humphrey et al., Stem Cells 22:522-30, 2004). It was determined if the Notch/sSTAT survival pathway is present in mouse or human ES cells.

[7] = test system: p38, SMAD1/5/8, MSK-1, STAT3 phosphorylation in hES cells; assay: Signalling immunoblots in hES cells
Procedure: Immunoblotting: Immunoblotting was performed as previously described (Panchision et al., Genes Dev 15:2094-110, 2001). The following antibodies were used in the experiments described below: pSer473-Akt (92715), pSer308-Akt (9275), pSer2448-mTOR (29715), pThr180/Tyr182-p38 (9211), pSMAD1/5/8 (9511) from Cell Signaling; STAT3 (482), pSer727-STAT3 (8001-R), pTyr705-STAT3 (7993) from Santa Cruz; Sonic Hedgehog (R&D, AF464), nucleostemin (McKay Lab), Hes3 (Chemicon, AB5706), α-tubulin (Sigma, T-6074).
To determine whether in the hES system JAK inhibition reduced p38 activity, cells were treated in the absence of MEF with JAK inhibitor for different times and assayed for p38 phosphorylation.

[8] = test system: nucleostemin, SHH; assay: Nucleostemin and SHH protein expression in CNS stem cells; assay type: cell-based, mouse
From the text: The interest in stem cell self-renewal mechanisms prompted analysis of potential down-stream components of the Notch/STAT3-Ser727 (Notch/sSTAT) pathway. Nucleostemin is a p53-binding protein expressed in self-renewing CNS stem cells and cancer cells (Tsai et al., J Neurosci 20:3725-35, 2000; Tsai et al., J Cell Biol 168:179-84, 2005). Sonic Hedgehog (SHH) is a protein with functions in fate specification and stem cell survival in the fetal and adult CNS (Palma et al., Development 132:335-44, 2005).
There are two forms of mRNA encoded by the Hes3 gene, Hes3a and Hes3b.

Molecule: C[C@H](NC(=O)Cc1cc(F)cc(F)c1)C(=O)N[C@H](C(=O)OC(C)(C)C)c1ccccc1 [DAPT, reference compound]
- basal levels of pSer727 [1]: reduced the basal levels of pSer727
- effect on STAT3-Ser727 phosphorylation following Notch activation [1]: blocked
- accumulation of Notch1IC [2]: blocks the accumulation of Notch1IC
- effect on Jagged-induced Hes3 mRNA induction [3]: inhibited Hes3 induction by Jagged1

Molecule: C[S+]([O-])c1ccc(-c2nc(-c3ccc(F)cc3)c(-c3ccncc3)[nH]2)cc1 (stereo not drawn) [p38 inhibitor, 4-(4-Fluorophenyl)-2-(4-methylsulfinylphenyl)-5-(4-pyridyl)1H-imidazole]
- CNS stem cell survival / plating efficiency [4]: enhanced survival to a similar extent to the JAK inhibitor
- human ES cell survival [5]: stimulated human ES cell survival
- Oct4 expression ([6]; five day treatments in the presence of LIF): did not affect Oct4 expression
- cell survival in a plating efficiency assay ([6]; in the presence of LIF): did not significantly alter cell survival
- STAT3 phosphorylation on Ser727 [7]: stimulated STAT3 phosphorylation on Ser727
- phosphorylation of MSK-1 kinase [7]: reduced the phosphorylation of MSK-1 kinase
- phosphorylation of SMAD 1/5/8 [7]: reduced in a time-dependent manner

Molecule: CN(C)S(=O)(=O)c1ccc2c(c1)/C(=C/c1cc3c([nH]1)CCCC3)C(=O)N2 [SU6656, reference compound]
- effect on STAT3-Ser727 phosphorylation following Notch activation [1]: blocked

Molecule: COc1ccc(S(=O)(=O)Nc2ccccc2CN(C)C/C=C/c2ccc(Cl)cc2)cc1 [KN92, reference compound]
- effect on STAT3-Ser727 phosphorylation following Notch activation [1]: no effect

B1: CNTF: cilliary neurotrophic factor, CNTF (577-NT) from R&D (protein, UniProt P26441 1-200, looked up)
Ciliary neurotrophic factor: MAFTEHSPLTPHRRDLCSRSIWLARKIRSDLTALTESYVKHQGLNKNINLDSADGMPVASTDQWSELTEAERLQENLQAYRTFHVLLARLLEDQQVHFTPTEGDFHQAIHTLLLQVAAFAYQIEELMILLEYKIPRNEADGMPINVGDGGLFEKKLWGLKVLQELSQWTVRSIHDLRFISSHQTGIPARGSHYIANNKKM
- CNS stem cell survival / plating efficiency [4]: increased survival; also recorded: support CNS stem cell survival
- time of peak STAT3 phosphorylation [1]: around 30 min
- concentration at which phosphorylation of STAT3 on Tyr705 occurs ([1]; dose response, 30 minutes): > 1 ng/mL
- concentration inducing phosphorylation of STAT3 on Ser727 ([1]; dose response, 30 minutes): < 0.5 ng/mL
- nucleostemin and SHH protein expression [8]: Nucleostemin levels were also increased
- Hes3 mRNA levels ([3]; CNTF 20 ng/ml): did not induce Hes3 mRNA
- effect on Jagged-induced Hes3 mRNA induction [3]: inhibited Hes3 induction by Jagged1
- Hes3 expression at the protein expression level ([3]; immunohistochemical): inhibits

Source: patent publication US20080242594A1, “Methods for Promoting Stem Cell Proliferation and Survival” (priority 2005, published 2008)
